# Experiments:
# [1] = Cell viability, MTT test in MC3T3-E1; format: cell-based; details: mouse, MC3T3-E1 cells (osteoblast-like cell line), MC3T3-E1, negative control = 100
# Procedure: MC3T3-E1 cells ((IAA) the Institution of Physical and Chemical Research), osteoblast-like cell line derived from the mouse fetus cranial bone cells, were inoculated into the 96 well plate at 4,000 cells/well. As a medium, the basal medium prepared in the Example 3 supplemented with fargesin at 2 to 80 μM was used. Pre-culture was performed by using the basal medium only under the conditions of 5% CO2 and 37 degree centigrade for 3 days. After that, the conditioned medium was changed to fresh medium with fargesin; the culture was performed under the conditions of 5% CO2 and 37 degree centigrade for 3 days. On the day 4 from the culture start, the conditioned medium was changed to the fresh medium; the culture was further performed under the conditions of 5% CO2 and 37 degree centigrade for 3 days. After the termination of the culture, the following MTT test, measurement of ALP activities, and the staining were performed.
# Cell viability was measured by using MTT test. MTT reagent was prepared by dissolving 50 mg of 3-(4,5-dimethyl-thiazol-2-yl)-2,5-diphenyl tetrazolium bromide in 10 ml of PBS (−). After the termination of the culture, the medium containing fargesin was partially removed from each well to adjust the solution volume to 100 μL. Ten μl of the MTT reagent was then added to each well to be reacted to give blue-violet color in the CO2 incubator.
# After the termination of the reaction, all medium was removed from each well, 100 μl of DMSO as a lysis solution was added to each well, and then the absorbance was measured at 570 nm to study the viability of live cells.
# [2] = test system: metatarsals of mouse fetus; test: Organ culture of mouse fetus metatarsals, calcein staining; format: cell-based; details: 0.3 μM, 7 days organ culture, versus 0.3% DMSO negative control
# Procedure: Eagle's minimum essential mediums (MEM, Life Technologies Japan Corporation (Invitrogen)) was used to prepare the organ culture medium by adding 1% of penicillin/streptomycin (Life Technologies Japan Corporation (GIBCO)), 0.25% of fetal bovine serum (Sigma-Aldrich Co. LLC.), 50 μg/ml of ascorbic acid (Wako Pure Chemical Industries, Ltd.), 1 mM of β-glycerophosphoric acid (Sigma-Aldrich Co. LLC.), and 1 μg/ml of calcein (Sigma-Aldrich Co. LLC.). As a test substance, 0.3 μM of fargesin, or as a control, 0.3% of DMSO (final cone., Wako Pure Chemical Industries, Ltd.) was added to the organ culture medium. Fargesin was used the same solution prepared in Example 1 containing 0.3% DMSO as the final concentration.
# On 15 of pregnancy, mouse fetuses were took from pregnant female ICR mice (Japan SLC, Inc.) by Caesarean operation (E15.5) from the 15th days of a pregnant ICR female mouse by Caesarean section. Left and right metatarsals of the fetus were excised to be placed into the organ culture medium. The organ culture was performed under the conditions of 5% CO2 at 37 degree centigrade for 7 days to observe the effect on long axis direction.
# The long axis of the bone grows depending on that of epiphyseal cartilage existing between an epiphysis and a shaft. […] Then, calcification was occurred from the occification center (ossification). […]
# [3] = test system: mouse monocyte macrophage type cells under RANKL stimulation; details: cited from earlier work
smiles,measurement,setting,value
"COc1ccc([C@@H]2OC[C@H]3[C@@H]2CO[C@@H]3c2ccc3c(c2)OCO3)cc1OC [fargesin, Fargesin]","viability at 6 days, 2 µM",[1]; 2 μM,106 ± 3.2%
same,"viability at 6 days, 6 µM",[1]; 6 μM,105 ± 3.3%
same,"viability at 6 days, 20 µM",[1]; 20 μM,100 ± 3.4%
same,"viability at 6 days, 60 µM",[1]; 60 μM,89.1 ± 3.9%
same,"viability at 6 days, 80 µM",[1]; 80 μM,92.6 ± 3.7%
same,"extension of the metatarsal in long axis direction (calcified area, calcein fluorescence)",[2],extended longer vertically
same,phosphorylation of p38 and I-κB by RANKL stimulation,[3]; RANKL stimulation,inhibits the phosphorylation
same,tartrate-resistant acid phosphatase activities,"[3]; mouse monocyte macrophage type cells under RANKL stimulation, or marrow monocytoid cells in culture",dose-dependently inhibits
